{"source": "patent US20100267561A1", "about": "“HERBICIDAL PYRIDAZINONE DERIVATIVES” (priority 2007, published 2010)", "experiment_in_all_cases": "Test E pre-/postemergence plant response", "format_in_all_cases": "in vivo", "details_in_all_cases": "scale 0 to 100", "key": {"[1]": {"tested_on": "goosegrass (Eleusine indica)", "procedure,_shortened": "(§1)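 Plant response was judged by eye relative to controls, 0 meaning no effect and 100 complete control, after 14 to 21 days under greenhouse conditions. Compound was formulated in a non-phytotoxic solvent mixture with surfactant.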"}, "[2]": {"tested_on": "barnyardgrass (Echinochloa crus-galli)", "procedure,_shortened": "as §1"}, "[3]": {"tested_on": "common mallow (Malva sylvestris)", "procedure,_shortened": "as §1"}, "[4]": {"tested_on": "surinam grass (Brachiaria decumbens)", "procedure,_shortened": "as §1"}, "[5]": {"tested_on": "annual bluegrass (Poa annua)", "procedure,_shortened": "as §1"}, "[6]": {"tested_on": "bermudagrass (Cynodon dactylon)", "procedure,_shortened": "as §1"}, "[7]": {"tested_on": "purple nutsedge (Cyperus rotundus)", "procedure,_shortened": "as §1"}, "[8]": {"tested_on": "pitted morningglory (Ipomoea lacunosa)", "procedure,_shortened": "as §1"}, "[9]": {"tested_on": "guineagrass (Panicum maximum)", "procedure,_shortened": "as §1"}, "[10]": {"tested_on": "johnsongrass (Sorghum halepense)", "procedure,_shortened": "as §1"}, "[11]": {"tested_on": "itchgrass (Rottboellia cochinchinensis)", "procedure,_shortened": "as §1"}, "[12]": {"tested_on": "green foxtail (Setaria viridis)", "procedure,_shortened": "as §1"}}}
{"smiles": "Cc1cc(-c2ccc(Cl)cc2)nn1-c1c(OC(=O)C(C)C)cnn(C)c1=O", "note": "[Compound 34]", "values": [{"measurement": "Plant response rating, Goosegrass", "setting": "[1]; 16 g ai/ha, Preemergence", "result": 65}, {"measurement": "Plant response rating, Goosegrass", "setting": "[1]; 31 g ai/ha, Preemergence", "result": 95}, {"measurement": "Plant response rating, Goosegrass", "setting": "[1]; 62 g ai/ha, Preemergence", "result": 100}, {"measurement": "Plant response rating, Goosegrass", "setting": "[1]; Postemergence, 8 g ai/ha", "result": 0}, {"measurement": "Plant response rating, Goosegrass", "setting": "[1]; Postemergence, 16 g ai/ha", "result": 20}, {"measurement": "Plant response rating, Goosegrass", "setting": "[1]; Postemergence, 31 g ai/ha", "result": 80}, {"measurement": "Plant response rating, Goosegrass", "setting": "[1]; Postemergence, 62 g ai/ha", "result": 80}, {"measurement": "Plant response rating, Barnyardgrass", "setting": "[2]; 16 g ai/ha, Preemergence", "result": 80}, {"measurement": "Plant response rating, Barnyardgrass", "setting": "[2]; 31 g ai/ha, Preemergence", "result": 100}, {"measurement": "Plant response rating, Barnyardgrass", "setting": "[2]; 62 g ai/ha, Preemergence", "result": 100}, {"measurement": "Plant response rating, Barnyardgrass", "setting": "[2]; Postemergence, 8 g ai/ha", "result": 95}, {"measurement": "Plant response rating, Barnyardgrass", "setting": "[2]; Postemergence, 16 g ai/ha", "result": 100}, {"measurement": "Plant response rating, Barnyardgrass", "setting": "[2]; Postemergence, 31 g ai/ha", "result": 100}, {"measurement": "Plant response rating, Barnyardgrass", "setting": "[2]; Postemergence, 62 g ai/ha", "result": 100}, {"measurement": "Plant response rating, Mallow", "setting": "[3]; 16 g ai/ha, Preemergence", "result": 0}, {"measurement": "Plant response rating, Mallow", "setting": "[3]; 31 g ai/ha, Preemergence", "result": 0}, {"measurement": "Plant response rating, Mallow", "setting": "[3]; 62 g ai/ha, Preemergence", "result": 0}, {"measurement": "Plant response rating, Mallow", "setting": "[3]; Postemergence, 8 g ai/ha", "result": 0}, {"measurement": "Plant response rating, Mallow", "setting": "[3]; Postemergence, 16 g ai/ha", "result": 0}, {"measurement": "Plant response rating, Mallow", "setting": "[3]; Postemergence, 31 g ai/ha", "result": 0}, {"measurement": "Plant response rating, Mallow", "setting": "[3]; Postemergence, 62 g ai/ha", "result": 0}, {"measurement": "Plant response rating, Surinam Grass", "setting": "[4]; 16 g ai/ha, Preemergence", "result": 98}, {"measurement": "Plant response rating, Surinam Grass", "setting": "[4]; 31 g ai/ha, Preemergence", "result": 100}, {"measurement": "Plant response rating, Surinam Grass", "setting": "[4]; 62 g ai/ha, Preemergence", "result": 100}, {"measurement": "Plant response rating, Surinam Grass", "setting": "[4]; Postemergence, 8 g ai/ha", "result": 90}, {"measurement": "Plant response rating, Surinam Grass", "setting": "[4]; Postemergence, 16 g ai/ha", "result": 98}, {"measurement": "Plant response rating, Surinam Grass", "setting": "[4]; Postemergence, 31 g ai/ha", "result": 100}, {"measurement": "Plant response rating, Surinam Grass", "setting": "[4]; Postemergence, 62 g ai/ha", "result": 100}, {"measurement": "Plant response rating, Bluegrass", "setting": "[5]; 16 g ai/ha, Preemergence", "result": 0}, {"measurement": "Plant response rating, Bluegrass", "setting": "[5]; 31 g ai/ha, Preemergence", "result": 0}, {"measurement": "Plant response rating, Bluegrass", "setting": "[5]; 62 g ai/ha, Preemergence", "result": 15}, {"measurement": "Plant response rating, Bluegrass", "setting": "[5]; Postemergence, 8 g ai/ha", "result": 0}, {"measurement": "Plant response rating, Bluegrass", "setting": "[5]; Postemergence, 16 g ai/ha", "result": 0}, {"measurement": "Plant response rating, Bluegrass", "setting": "[5]; Postemergence, 31 g ai/ha", "result": 0}, {"measurement": "Plant response rating, Bluegrass", "setting": "[5]; Postemergence, 62 g ai/ha", "result": 0}, {"measurement": "Plant response rating, Bermudagrass", "setting": "[6]; 16 g ai/ha, Preemergence", "result": 40}, {"measurement": "Plant response rating, Bermudagrass", "setting": "[6]; 31 g ai/ha, Preemergence", "result": 90}, {"measurement": "Plant response rating, Bermudagrass", "setting": "[6]; 62 g ai/ha, Preemergence", "result": 100}, {"measurement": "Plant response rating, Bermudagrass", "setting": "[6]; Postemergence, 8 g ai/ha", "result": 20}, {"measurement": "Plant response rating, Bermudagrass", "setting": "[6]; Postemergence, 16 g ai/ha", "result": 50}, {"measurement": "Plant response rating, Bermudagrass", "setting": "[6]; Postemergence, 31 g ai/ha", "result": 80}, {"measurement": "Plant response rating, Bermudagrass", "setting": "[6]; Postemergence, 62 g ai/ha", "result": 95}, {"measurement": "Plant response rating, Nutsedge, Purple", "setting": "[7]; 16 g ai/ha, Preemergence", "result": 0}, {"measurement": "Plant response rating, Nutsedge, Purple", "setting": "[7]; 31 g ai/ha, Preemergence", "result": 20}, {"measurement": "Plant response rating, Nutsedge, Purple", "setting": "[7]; 62 g ai/ha, Preemergence", "result": 35}, {"measurement": "Plant response rating, Nutsedge, Purple", "setting": "[7]; Postemergence, 8 g ai/ha", "result": 0}, {"measurement": "Plant response rating, Nutsedge, Purple", "setting": "[7]; Postemergence, 16 g ai/ha", "result": 0}, {"measurement": "Plant response rating, Nutsedge, Purple", "setting": "[7]; Postemergence, 31 g ai/ha", "result": 0}, {"measurement": "Plant response rating, Nutsedge, Purple", "setting": "[7]; Postemergence, 62 g ai/ha", "result": 0}, {"measurement": "Plant response rating, Morningglory", "setting": "[8]; 16 g ai/ha, Preemergence", "result": 0}, {"measurement": "Plant response rating, Morningglory", "setting": "[8]; 31 g ai/ha, Preemergence", "result": 0}, {"measurement": "Plant response rating, Morningglory", "setting": "[8]; 62 g ai/ha, Preemergence", "result": 0}, {"measurement": "Plant response rating, Morningglory", "setting": "[8]; Postemergence, 8 g ai/ha", "result": 0}, {"measurement": "Plant response rating, Morningglory", "setting": "[8]; Postemergence, 16 g ai/ha", "result": 0}, {"measurement": "Plant response rating, Morningglory", "setting": "[8]; Postemergence, 31 g ai/ha", "result": 0}, {"measurement": "Plant response rating, Morningglory", "setting": "[8]; Postemergence, 62 g ai/ha", "result": 30}, {"measurement": "Plant response rating, Guineagrass", "setting": "[9]; 16 g ai/ha, Preemergence", "result": 100}, {"measurement": "Plant response rating, Guineagrass", "setting": "[9]; 31 g ai/ha, Preemergence", "result": 100}, {"measurement": "Plant response rating, Guineagrass", "setting": "[9]; 62 g ai/ha, Preemergence", "result": 100}, {"measurement": "Plant response rating, Guineagrass", "setting": "[9]; Postemergence, 8 g ai/ha", "result": 95}, {"measurement": "Plant response rating, Guineagrass", "setting": "[9]; Postemergence, 16 g ai/ha", "result": 95}, {"measurement": "Plant response rating, Guineagrass", "setting": "[9]; Postemergence, 31 g ai/ha", "result": 100}, {"measurement": "Plant response rating, Guineagrass", "setting": "[9]; Postemergence, 62 g ai/ha", "result": 100}, {"measurement": "Plant response rating, Johnsongrass", "setting": "[10]; 16 g ai/ha, Preemergence", "result": 50}, {"measurement": "Plant response rating, Johnsongrass", "setting": "[10]; 31 g ai/ha, Preemergence", "result": 90}, {"measurement": "Plant response rating, Johnsongrass", "setting": "[10]; 62 g ai/ha, Preemergence", "result": 90}, {"measurement": "Plant response rating, Johnsongrass", "setting": "[10]; Postemergence, 8 g ai/ha", "result": 10}, {"measurement": "Plant response rating, Johnsongrass", "setting": "[10]; Postemergence, 16 g ai/ha", "result": 80}, {"measurement": "Plant response rating, Johnsongrass", "setting": "[10]; Postemergence, 31 g ai/ha", "result": 98}, {"measurement": "Plant response rating, Johnsongrass", "setting": "[10]; Postemergence, 62 g ai/ha", "result": 100}, {"measurement": "Plant response rating, Itchgrass", "setting": "[11]; 16 g ai/ha, Preemergence", "result": 80}, {"measurement": "Plant response rating, Itchgrass", "setting": "[11]; 31 g ai/ha, Preemergence", "result": 85}, {"measurement": "Plant response rating, Itchgrass", "setting": "[11]; 62 g ai/ha, Preemergence", "result": 90}, {"measurement": "Plant response rating, Itchgrass", "setting": "[11]; Postemergence, 8 g ai/ha", "result": 70}, {"measurement": "Plant response rating, Itchgrass", "setting": "[11]; Postemergence, 16 g ai/ha", "result": 80}, {"measurement": "Plant response rating, Itchgrass", "setting": "[11]; Postemergence, 31 g ai/ha", "result": 95}, {"measurement": "Plant response rating, Itchgrass", "setting": "[11]; Postemergence, 62 g ai/ha", "result": 95}, {"measurement": "Plant response rating, Foxtail, Green", "setting": "[12]; 16 g ai/ha, Preemergence", "result": 65}, {"measurement": "Plant response rating, Foxtail, Green", "setting": "[12]; 31 g ai/ha, Preemergence", "result": 75}, {"measurement": "Plant response rating, Foxtail, Green", "setting": "[12]; 62 g ai/ha, Preemergence", "result": 100}, {"measurement": "Plant response rating, Foxtail, Green", "setting": "[12]; Postemergence, 8 g ai/ha", "result": 50}, {"measurement": "Plant response rating, Foxtail, Green", "setting": "[12]; Postemergence, 16 g ai/ha", "result": 75}, {"measurement": "Plant response rating, Foxtail, Green", "setting": "[12]; Postemergence, 31 g ai/ha", "result": 95}, {"measurement": "Plant response rating, Foxtail, Green", "setting": "[12]; Postemergence, 62 g ai/ha", "result": 98}]}
